Assay [1] has as its target T1, Francisella tularensis GyrB (ATP binding domain) (Francisella tularensis subsp. tularensis, UniProt Q5NHE7). Description: biochemical.
In assay [2] the target is E. coli gyrase A2B2 heterotetramer (Escherichia coli, UniProt P0AES6). Description: Gyrase activity. In kind it is biochemical. To be noted: 50 μM compound, 0.5 μg relaxed pHOT1 DNA, 1 h 37 °C.
The target in assay [3] is T1, Francisella tularensis GyrB (ATP binding domain). Kind of assay: biochemical. The settings on record: 1 h, read-out: decrease of binding of Novo-TRX to GyrB.

Structures are written as SMILES. pIC50: −log10 of the molar value.

T1 sequence (Q5NHE7 1-805): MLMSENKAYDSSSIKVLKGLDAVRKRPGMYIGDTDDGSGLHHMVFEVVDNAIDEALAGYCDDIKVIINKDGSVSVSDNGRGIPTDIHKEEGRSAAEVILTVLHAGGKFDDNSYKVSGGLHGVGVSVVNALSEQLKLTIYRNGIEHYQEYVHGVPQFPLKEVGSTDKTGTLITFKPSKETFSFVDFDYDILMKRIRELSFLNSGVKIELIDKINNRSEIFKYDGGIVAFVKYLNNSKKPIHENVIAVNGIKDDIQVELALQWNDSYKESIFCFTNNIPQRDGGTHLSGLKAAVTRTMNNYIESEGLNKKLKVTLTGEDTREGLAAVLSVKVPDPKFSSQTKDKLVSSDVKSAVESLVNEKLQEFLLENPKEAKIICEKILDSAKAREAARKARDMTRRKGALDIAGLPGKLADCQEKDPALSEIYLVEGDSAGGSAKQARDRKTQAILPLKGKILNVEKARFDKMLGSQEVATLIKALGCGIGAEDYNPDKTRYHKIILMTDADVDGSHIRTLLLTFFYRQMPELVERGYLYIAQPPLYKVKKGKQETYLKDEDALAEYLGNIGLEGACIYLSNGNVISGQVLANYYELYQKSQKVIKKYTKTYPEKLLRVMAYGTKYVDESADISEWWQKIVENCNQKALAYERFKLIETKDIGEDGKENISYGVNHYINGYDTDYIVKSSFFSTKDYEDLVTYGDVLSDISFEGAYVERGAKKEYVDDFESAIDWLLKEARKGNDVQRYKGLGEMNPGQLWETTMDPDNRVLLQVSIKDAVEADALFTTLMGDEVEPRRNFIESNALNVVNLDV

In the case of `CCNC(=O)Nc1nc2cc(-c3cccnc3)cc(-c3ccccn3)c2[nH]1` [Vertex-13, N-ethyl-N′-[7-(2-pyridinyl)-5-(3-pyridinyl)-1H-benzimidazol-2-yl]-urea], in assay [1], the pIC50 is 6.41 and the “potency relative to novobiocin in the F. tularensis system (fold less potent)” value was “approximately 10 fold”.

Compound `COc1cccc2c1C(=O)c1c(O)c3c(c(O)c1C2=O)C[C@@](O)(C(C)=O)C[C@@H]3O[C@H]1C[C@H](N)[C@H](O)[C@H](C)O1` [daunorubicin] gave a negative logarithm of the IC50 (pIC50) in assay [1] of 5.84. Moreover, in assay [2], the “inhibition of supercoiling of relaxed DNA” value (“inhibition … of relaxed DNA” below) is “less clear”.

As for `COc1cccc2c1C(=O)c1c(O)c3c(c(O)c1C2=O)C[C@@](O)(C(=O)CO)C[C@@H]3O[C@H]1C[C@H](N)[C@H](O)[C@H](C)O1` [doxorubicin], in assay [1], the negative-log IC50 (pIC50) was 6.51. Further, the “inhibition … of relaxed DNA” value in assay [2] is reported as “inhibit supercoiling to the level of the no-gyrase control”.

In assay [1], `COc1cccc2c1C(=O)c1c(O)c3c(c(O)c1C2=O)C[C@@](O)(C(=O)CO)C[C@@H]3O[C@H]1C[C@H](N)[C@@H](O)[C@H](C)O1` [epirubicin] showed a negative logarithm of the IC50 (pIC50) of 5.90. Further, the “inhibition … of relaxed DNA” value in assay [2] is given as “inhibit supercoiling to the level of the no-gyrase control”.

`CC(=O)[C@]1(O)Cc2c(O)c3c(c(O)c2[C@@H](O[C@H]2C[C@H](N)[C@H](O)[C@H](C)O2)C1)C(=O)c1ccccc1C3=O` [idarubicin] had a pIC50 in assay [1] of 5.80. Besides, the “inhibition … of relaxed DNA” value in assay [2] was “less clear”.

In the case of `CO[C@@H]1[C@@H](OC(N)=O)[C@@H](O)[C@H](Oc2ccc3c(O)c(NC(=O)c4ccc(O)c(CC=C(C)C)c4)c(=O)oc3c2C)OC1(C)C` [novobiocin], the inhibition at 10 µM in assay [3] was over 40%.

The record behind these values is paper PMC3176662 (Journal of biomolecular screening, 2011).
